# Measured values published in patent US11542240B2, “STK19 inhibitors for treatment of cancer” (TRUSTEES OF BOSTON UNIVERSITY, priority 2018, dated 2023).
# Values joined by “and” are separate entries in the source; they are usually repeats but may differ in a detail not shown here. Equal values may be shown once. Read-outs that look alike come from different tables or passages of the source.
# Tests used:
# Assay in all cases: biochemical
# Format in all cases: binding
# [1] = target: panel of 468 diverse kinases (Homo sapiens, UniProt Q15831); conditions: LKB1; 1000 nM; read-out: Percent Control
# [2] = tested on: panel of 468 diverse kinases
# [3] = target: panel of 468 diverse kinases (Homo sapiens, UniProt Q9UEE5); conditions: DRAK1; 1000 nM; read-out: Percent Control
# [4] = target: panel of 468 diverse kinases (Homo sapiens, UniProt P36888, D835V); conditions: FLT3(D835V); 1000 nM; read-out: Percent Control
# [5] = target: panel of 468 diverse kinases (Homo sapiens, UniProt Q9P1W9); conditions: PIM2; 1000 nM; read-out: Percent Control
# [6] = target: panel of 468 diverse kinases (Homo sapiens, UniProt O14965); conditions: AURKA; 1000 nM; read-out: Percent Control
# [7] = target: panel of 468 diverse kinases (Homo sapiens, UniProt Q9UM73, C1156Y); conditions: ALK(C1156Y); 1000 nM; read-out: Percent Control
# Sequence of panel of 468 diverse kinases (Homo sapiens, UniProt Q9UM73, C1156Y) (Q9UM73 19-1620 C1156Y limits assumed): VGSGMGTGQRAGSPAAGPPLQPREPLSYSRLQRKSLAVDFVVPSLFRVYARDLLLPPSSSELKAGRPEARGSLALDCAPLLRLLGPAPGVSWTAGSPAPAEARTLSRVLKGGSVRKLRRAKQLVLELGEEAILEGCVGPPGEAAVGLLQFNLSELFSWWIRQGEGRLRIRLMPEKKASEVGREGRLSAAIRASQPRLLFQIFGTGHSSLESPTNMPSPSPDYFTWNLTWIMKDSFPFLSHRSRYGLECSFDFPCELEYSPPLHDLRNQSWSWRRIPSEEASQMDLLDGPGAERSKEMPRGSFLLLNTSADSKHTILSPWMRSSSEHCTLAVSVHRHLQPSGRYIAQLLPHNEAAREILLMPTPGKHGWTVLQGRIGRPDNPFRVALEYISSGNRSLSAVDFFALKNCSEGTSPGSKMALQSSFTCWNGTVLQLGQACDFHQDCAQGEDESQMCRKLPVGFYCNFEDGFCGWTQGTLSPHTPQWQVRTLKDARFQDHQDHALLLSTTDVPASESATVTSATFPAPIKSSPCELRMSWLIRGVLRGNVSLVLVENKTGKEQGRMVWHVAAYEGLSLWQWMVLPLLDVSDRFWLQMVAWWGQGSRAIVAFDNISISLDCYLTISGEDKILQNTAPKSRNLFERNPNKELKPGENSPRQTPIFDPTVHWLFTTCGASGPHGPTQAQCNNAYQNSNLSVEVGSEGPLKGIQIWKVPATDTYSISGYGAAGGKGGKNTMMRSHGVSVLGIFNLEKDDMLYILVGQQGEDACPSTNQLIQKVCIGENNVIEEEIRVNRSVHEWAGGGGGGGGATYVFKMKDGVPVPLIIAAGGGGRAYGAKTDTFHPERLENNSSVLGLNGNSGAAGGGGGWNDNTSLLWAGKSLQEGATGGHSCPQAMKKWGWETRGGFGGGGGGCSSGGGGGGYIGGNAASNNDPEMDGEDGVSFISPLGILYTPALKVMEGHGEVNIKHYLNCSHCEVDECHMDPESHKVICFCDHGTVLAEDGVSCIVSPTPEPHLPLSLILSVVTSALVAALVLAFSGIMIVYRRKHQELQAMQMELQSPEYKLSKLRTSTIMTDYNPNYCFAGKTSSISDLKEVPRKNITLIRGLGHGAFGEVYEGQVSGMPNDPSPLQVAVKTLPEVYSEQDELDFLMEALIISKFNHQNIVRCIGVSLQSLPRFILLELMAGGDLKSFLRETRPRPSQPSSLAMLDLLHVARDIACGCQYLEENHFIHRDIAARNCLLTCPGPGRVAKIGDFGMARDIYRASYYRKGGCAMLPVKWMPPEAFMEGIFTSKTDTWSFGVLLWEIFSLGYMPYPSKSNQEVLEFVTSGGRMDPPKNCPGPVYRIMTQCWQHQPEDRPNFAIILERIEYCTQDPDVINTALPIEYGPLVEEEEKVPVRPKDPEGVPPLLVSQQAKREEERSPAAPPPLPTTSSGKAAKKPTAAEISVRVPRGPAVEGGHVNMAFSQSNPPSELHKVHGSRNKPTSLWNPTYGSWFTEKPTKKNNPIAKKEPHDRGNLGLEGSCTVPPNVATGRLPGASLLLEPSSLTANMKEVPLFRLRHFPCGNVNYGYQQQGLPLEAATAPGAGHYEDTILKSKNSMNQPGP
# [8] = target: panel of 468 diverse kinases (Homo sapiens, UniProt Q9UBF8); conditions: PIK4CB; 1000 nM; read-out: Percent Control
# Sequence of panel of 468 diverse kinases (Homo sapiens, UniProt Q9UBF8) (Q9UBF8 2-816 limits assumed): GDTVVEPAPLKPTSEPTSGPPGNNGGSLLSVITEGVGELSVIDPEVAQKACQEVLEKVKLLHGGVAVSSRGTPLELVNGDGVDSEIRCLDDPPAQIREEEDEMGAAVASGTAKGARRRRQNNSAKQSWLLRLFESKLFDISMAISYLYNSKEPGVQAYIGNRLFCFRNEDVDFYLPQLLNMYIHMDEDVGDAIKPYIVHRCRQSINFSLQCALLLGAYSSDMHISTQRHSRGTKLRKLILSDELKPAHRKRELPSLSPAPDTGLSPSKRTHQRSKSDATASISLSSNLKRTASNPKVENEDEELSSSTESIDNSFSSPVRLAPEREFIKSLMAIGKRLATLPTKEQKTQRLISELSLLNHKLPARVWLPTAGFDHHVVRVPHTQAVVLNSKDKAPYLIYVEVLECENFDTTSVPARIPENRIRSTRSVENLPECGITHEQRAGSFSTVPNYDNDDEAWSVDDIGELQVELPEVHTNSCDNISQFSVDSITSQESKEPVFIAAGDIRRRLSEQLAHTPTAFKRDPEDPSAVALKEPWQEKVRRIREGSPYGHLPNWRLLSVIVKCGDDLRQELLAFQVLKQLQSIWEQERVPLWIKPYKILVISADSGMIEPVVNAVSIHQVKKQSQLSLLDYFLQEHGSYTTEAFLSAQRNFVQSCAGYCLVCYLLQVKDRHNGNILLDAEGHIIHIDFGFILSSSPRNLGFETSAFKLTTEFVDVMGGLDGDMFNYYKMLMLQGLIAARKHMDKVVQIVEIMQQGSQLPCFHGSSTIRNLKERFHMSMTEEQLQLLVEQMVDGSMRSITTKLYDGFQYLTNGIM
# [9] = target: panel of 468 diverse kinases (Homo sapiens, UniProt Q15418); conditions: 1000 nM, read-out: Percent Control
# [10] = target: panel of 468 diverse kinases (Homo sapiens, UniProt Q8WTQ7); conditions: GRK7; 1000 nM; read-out: Percent Control
# [11] = target: panel of 468 diverse kinases (Homo sapiens, UniProt P48729); conditions: CSNKIV1; 1000 nM; read-out: Percent Control
# Sequence of panel of 468 diverse kinases (Homo sapiens, UniProt P48729) (P48729 2-337 limits assumed): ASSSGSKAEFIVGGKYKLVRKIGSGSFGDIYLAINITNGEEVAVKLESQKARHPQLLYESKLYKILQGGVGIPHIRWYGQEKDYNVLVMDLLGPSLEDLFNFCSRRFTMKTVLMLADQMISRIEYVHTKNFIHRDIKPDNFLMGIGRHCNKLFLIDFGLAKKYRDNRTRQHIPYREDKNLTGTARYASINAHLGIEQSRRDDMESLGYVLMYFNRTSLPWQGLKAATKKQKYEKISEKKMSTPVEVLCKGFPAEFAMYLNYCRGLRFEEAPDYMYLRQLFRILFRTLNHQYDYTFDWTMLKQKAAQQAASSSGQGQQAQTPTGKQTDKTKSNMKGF
# [12] = target: panel of 468 diverse kinases (Homo sapiens, UniProt P00533); conditions: EGFR; 1000 nM; read-out: Percent Control
# Sequence of panel of 468 diverse kinases (Homo sapiens, UniProt P00533) (P00533 25-1210 limits assumed): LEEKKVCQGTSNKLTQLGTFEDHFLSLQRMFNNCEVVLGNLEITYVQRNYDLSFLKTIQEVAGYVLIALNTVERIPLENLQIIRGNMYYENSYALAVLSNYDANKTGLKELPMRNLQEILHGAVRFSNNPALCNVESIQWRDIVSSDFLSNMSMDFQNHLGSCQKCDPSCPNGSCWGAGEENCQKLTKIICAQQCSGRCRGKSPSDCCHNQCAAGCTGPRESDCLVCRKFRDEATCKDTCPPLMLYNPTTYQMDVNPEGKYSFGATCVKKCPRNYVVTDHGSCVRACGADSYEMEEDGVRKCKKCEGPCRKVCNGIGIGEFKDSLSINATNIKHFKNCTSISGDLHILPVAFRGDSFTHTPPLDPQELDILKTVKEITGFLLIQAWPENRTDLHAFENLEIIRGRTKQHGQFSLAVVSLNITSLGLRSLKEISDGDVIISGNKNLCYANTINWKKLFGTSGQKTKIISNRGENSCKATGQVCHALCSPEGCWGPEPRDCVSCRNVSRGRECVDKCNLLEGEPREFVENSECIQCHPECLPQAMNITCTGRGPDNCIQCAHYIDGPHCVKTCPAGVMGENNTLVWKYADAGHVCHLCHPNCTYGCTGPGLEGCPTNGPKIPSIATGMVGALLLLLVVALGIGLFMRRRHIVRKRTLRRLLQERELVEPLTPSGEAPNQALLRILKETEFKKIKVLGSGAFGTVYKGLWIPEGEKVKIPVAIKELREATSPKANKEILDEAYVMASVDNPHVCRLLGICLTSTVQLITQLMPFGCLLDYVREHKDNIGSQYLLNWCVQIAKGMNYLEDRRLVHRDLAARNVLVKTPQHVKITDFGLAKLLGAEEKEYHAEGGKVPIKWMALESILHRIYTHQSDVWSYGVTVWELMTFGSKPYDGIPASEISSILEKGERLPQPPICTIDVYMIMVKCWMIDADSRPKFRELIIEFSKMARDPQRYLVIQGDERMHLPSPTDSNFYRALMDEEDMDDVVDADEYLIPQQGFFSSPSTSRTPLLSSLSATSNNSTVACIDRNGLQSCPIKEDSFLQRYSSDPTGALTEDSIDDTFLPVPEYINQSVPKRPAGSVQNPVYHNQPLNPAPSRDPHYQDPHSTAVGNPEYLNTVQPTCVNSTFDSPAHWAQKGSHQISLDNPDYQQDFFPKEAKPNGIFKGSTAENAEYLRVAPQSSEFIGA
# [13] = target: panel of 468 diverse kinases (Homo sapiens, UniProt O94806); conditions: PRKD3; 1000 nM; read-out: Percent Control
# [14] = target: panel of 468 diverse kinases (Homo sapiens, UniProt O43293); conditions: DAPK3; 1000 nM; read-out: Percent Control
# [15] = target: panel of 468 diverse kinases (Homo sapiens, UniProt Q9UPE1); conditions: SRPK3; 1000 nM; read-out: Percent Control
# [16] = target: panel of 468 diverse kinases (Homo sapiens, UniProt O75385); conditions: ULK1; 1000 nM; read-out: Percent Control
# [17] = target: panel of 468 diverse kinases (Homo sapiens, UniProt Q96PY6); conditions: NEK1; 1000 nM; read-out: Percent Control
# [18] = target: panel of 468 diverse kinases (Homo sapiens, UniProt Q13188); conditions: MST2; 1000 nM; read-out: Percent Control
# [19] = target: panel of 468 diverse kinases (Homo sapiens, UniProt Q9Y6R4); conditions: MAP3K4; 1000 nM; read-out: Percent Control
# [20] = target: panel of 468 diverse kinases (Homo sapiens, UniProt P49674); conditions: CSNK1E; 1000 nM; read-out: Percent Control
# [21] = target: panel of 468 diverse kinases (Homo sapiens, UniProt P07949); conditions: RET; 1000 nM; read-out: Percent Control
# Sequence of panel of 468 diverse kinases (Homo sapiens, UniProt P07949) (P07949 29-1114 limits assumed): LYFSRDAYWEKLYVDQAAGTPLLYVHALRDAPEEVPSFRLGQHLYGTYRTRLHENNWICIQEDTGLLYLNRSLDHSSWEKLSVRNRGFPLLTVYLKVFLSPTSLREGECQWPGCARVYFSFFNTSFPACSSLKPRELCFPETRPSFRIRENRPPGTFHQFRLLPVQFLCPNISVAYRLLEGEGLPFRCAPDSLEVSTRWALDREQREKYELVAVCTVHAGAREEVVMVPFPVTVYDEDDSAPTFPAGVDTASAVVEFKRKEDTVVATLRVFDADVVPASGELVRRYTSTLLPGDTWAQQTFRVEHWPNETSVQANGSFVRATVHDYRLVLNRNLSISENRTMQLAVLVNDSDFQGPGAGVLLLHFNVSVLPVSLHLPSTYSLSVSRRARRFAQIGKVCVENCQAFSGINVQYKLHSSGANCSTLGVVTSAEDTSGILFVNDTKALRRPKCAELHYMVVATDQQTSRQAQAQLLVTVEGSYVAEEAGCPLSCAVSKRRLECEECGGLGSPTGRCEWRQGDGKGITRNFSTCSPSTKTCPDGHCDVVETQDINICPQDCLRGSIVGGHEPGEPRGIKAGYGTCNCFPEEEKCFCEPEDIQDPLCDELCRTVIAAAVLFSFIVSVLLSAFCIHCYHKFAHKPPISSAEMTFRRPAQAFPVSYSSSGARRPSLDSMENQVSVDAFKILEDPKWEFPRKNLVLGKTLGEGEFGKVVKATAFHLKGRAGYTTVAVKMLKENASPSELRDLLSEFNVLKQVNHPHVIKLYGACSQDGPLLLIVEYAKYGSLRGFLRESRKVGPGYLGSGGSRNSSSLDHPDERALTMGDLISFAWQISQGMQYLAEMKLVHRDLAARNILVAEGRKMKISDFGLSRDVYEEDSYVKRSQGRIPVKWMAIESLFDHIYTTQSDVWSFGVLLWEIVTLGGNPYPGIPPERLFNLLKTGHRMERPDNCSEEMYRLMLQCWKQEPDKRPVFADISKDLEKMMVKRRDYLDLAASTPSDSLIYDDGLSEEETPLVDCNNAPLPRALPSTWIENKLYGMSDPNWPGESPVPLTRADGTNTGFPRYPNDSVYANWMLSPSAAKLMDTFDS
# [22] = target: panel of 468 diverse kinases (Homo sapiens, UniProt Q32MK0); conditions: MLCK; 1000 nM; read-out: Percent Control
# [23] = target: panel of 468 diverse kinases (Homo sapiens, UniProt Q9BXA7); conditions: TSSK1B; 1000 nM; read-out: Percent Control
# [24] = target: panel of 468 diverse kinases (Homo sapiens, UniProt P52333); conditions: JAK3(JH1domain-catalytic); 1000 nM; read-out: Percent Control
# [25] = target: panel of 468 diverse kinases (Homo sapiens, UniProt O43283); conditions: LZK; 1000 nM; read-out: Percent Control
# [26] = target: panel of 468 diverse kinases (Homo sapiens, UniProt O94804); conditions: LOK; 1000 nM; read-out: Percent Control
# [27] = target: panel of 468 diverse kinases (Homo sapiens, UniProt Q9BYT3); conditions: STK33; 1000 nM; read-out: Percent Control
# [28] = target: panel of 468 diverse kinases (Homo sapiens, UniProt Q9Y6E0); conditions: MST3; 1000 nM; read-out: Percent Control
# [29] = target: panel of 468 diverse kinases (Homo sapiens, UniProt Q5S007); conditions: LRRK2; 1000 nM; read-out: Percent Control
# [30] = target: panel of 468 diverse kinases (Homo sapiens, UniProt Q99558); conditions: NIK; 1000 nM; read-out: Percent Control
# [31] = target: panel of 468 diverse kinases (Homo sapiens, UniProt O00750); conditions: PIK3C2B; 1000 nM; read-out: Percent Control
smiles,measurement,setting,value
COc1cc2nc(NC3CC3)nc(NC3CCN(C(C)C)CC3)c2cc1OC [Formula IV],remaining activity at 1 µM,[1],97%
same,Percent Control,[2],98% and 49% and 80% and 92% and 56% and 57%
same,kinase selectivity using KINOMEscan,[2],extremely high kinase selectivity
same,remaining activity at 1 µM,[3],96%
same,remaining activity at 1 µM,[4],44%
same,remaining activity at 1 µM,[5],91%
same,remaining activity at 1 µM,[6],56%
same,remaining activity at 1 µM,[7],92%
same,remaining activity at 1 µM,[8],100%
same,remaining activity at 1 µM,[9]; RSK1(Kin.Dom.1-N-terminal),93%
same,remaining activity at 1 µM,[9]; RSK1(Kin.Dom.2-C-terminal),98%
same,remaining activity at 1 µM,[10],90%
same,remaining activity at 1 µM,[11],74%
same,remaining activity at 1 µM,[12],97%
same,remaining activity at 1 µM,[13],91%
same,remaining activity at 1 µM,[14],89%
same,remaining activity at 1 µM,[15],100%
same,remaining activity at 1 µM,[16],51%
same,remaining activity at 1 µM,[17],100%
same,remaining activity at 1 µM,[18],100%
same,remaining activity at 1 µM,[19],100%
same,remaining activity at 1 µM,[20],100%
same,remaining activity at 1 µM,[21],100%
same,remaining activity at 1 µM,[22],91%
same,remaining activity at 1 µM,[23],85%
same,remaining activity at 1 µM,[24],70%
same,remaining activity at 1 µM,[25],45%
same,remaining activity at 1 µM,[26],90%
same,remaining activity at 1 µM,[27],92%
same,remaining activity at 1 µM,[28],96%
same,remaining activity at 1 µM,[29],71%
same,remaining activity at 1 µM,[30],46%
same,remaining activity at 1 µM,[31],87%
